Results on 22 compounds are retold here after paper PMC6026081 (Bioorganic & medicinal chemistry letters, 2017).

The nature of series [1]: Kinetic solubility by nephelometry. The settings on record: concentration range; for Sol2.0: 0.01 M HCl (approx. pH 2.0); for Sol6.5: pH 6.5 phosphate buffer. The class given is physicochemical.
A short description of series [2]: Cytotoxicity, growth inhibition of U-20S cells. The class given is cell-based. The conditions noted are these: human.
Series [3] can be described thus: Cytotoxicity, growth inhibition of HC-04 cells. The class given is cell-based. The conditions noted are these: human, HC-04 cells (hepatocyte).
Series [4] in a line: Plasma exposure after single oral dose in non-infected mice. The settings on record: single 100 mg/kg oral dose; for plasma concentration maintained over the 48 h sampling period / plasma concentration by ~18 h post-dose: non-infected mice; for plasma concentration maintained over the 48 h sampling period: up to 48 h post-dose; for systemic exposure (AUC to last measured concentration) relative to 1: fold higher than 1. The class given is in vivo, male Swiss outbred mice.

The nature of series [5]: Cytotoxicity, growth inhibition of HEK293 cells. The series is classed as cell-based. The settings on record: human, HEK293 cells (kidney).
The subject of series [6] is S. mansoni. The settings on record: 400 mg/kg dose; cited from earlier work.
The conditions of series [7]: 46.3 mg/kg oral dose; cited from earlier work.
For series [8], the system named is ex vivo S. mansoni. The settings on record: cited from earlier work.
The conditions of series [9]: cited from earlier work.

In series [1], `O=C(Nc1cccnc1)Nc1ccc(F)c(C(F)(F)F)c1` [Compd 7] returned a Sol2.0 of 50 to 100 µg/mL and a Sol6.5 of 12.5 to 25 µg/mL.

Consider `O=C(Nc1ccc2c(c1)OC(F)(F)O2)Nc1ccc2c(c1)OC(F)(F)O2` [Compd 5], for which the IC50 in [2], in [3] and in series [5] was > 100 µM in each case. Besides, the Sol2.0 in series [1] is <1.6/<1.6 μg/mL. Besides, the Sol6.5 in [1] is <1.6/<1.6 μg/mL. Also, the “plasma concentration maintained over the 48 h sampling period” value in [4] was > 5 µM.

As to `O=C(Nc1ccc(F)c(C(F)(F)F)c1)Nc1ccccn1` [Compd 8], in [1], the Sol2.0 is 1.6 to 3.1 µg/mL.

`O=C(Nc1ccc(C(=O)O)cc1)Nc1ccc(F)c(C(F)(F)F)c1` [Compd 11] registered a Sol6.5 in series [1] of 12.5 to 25 µg/mL.

In the case of `O=C(Nc1ccc2c(c1)OC(F)(F)O2)Nc1ccc(F)c(C(F)(F)F)c1` [Compd 17], the IC50 in series [2], in [3] and in series [5] was > 100 µM in each case. Moreover, the Sol2.0 in series [1] is <1.6/<1.6 μg/mL. Besides, the Sol6.5 in series [1] is <1.6/<1.6 μg/mL. Also, in series [4], the “plasma concentration maintained over the 48 h sampling period” value is > 5 µM.

As for `O=C(Nc1ccnc(C(F)(F)F)c1)Nc1ccc(F)c(C(F)(F)F)c1` [Compd 18], the IC50 in series [2], in [3] and in series [5] was > 100 µM in each case. In addition, the Sol2.0 in series [1] is 3.1–6.3/3.1–6.3 μg/mL. In addition, the Sol6.5 in series [1] is recorded as 3.1–6.3/3.1–6.3 μg/mL. For the same compound, the “systemic exposure (AUC to last measured concentration) relative to 1” value in series [4] is recorded as 2–4 fold.

`O=C(Nc1ccncc1)Nc1ccncc1` [Compd 3]: in [1], the Sol6.5 lay within 12.5 to 25 µg/mL.

On to `O=C(Nc1ccc(F)c(C(F)(F)F)c1)Nc1ccc(F)c(C(F)(F)F)c1` [Compd 1], for which the IC50 in [2], in series [3] and in series [5] was > 100 µM throughout. Also, the Sol2.0 in series [1] is <1.6/<1.6 μg/mL. The Sol6.5 in series [1] is given as <1.6/<1.6 μg/mL. Besides, the “plasma concentration maintained over the 48 h sampling period” value in [4] was “above 1 μM”.

Take `O=C(Nc1ccnc(C(F)(F)F)c1)Nc1ccnc(C(F)(F)F)c1` [Compd 2]: the IC50 in series [2], in [3] and in series [5] was > 100 µM throughout. For the same compound, in series [1], the Sol2.0 is 12.5–25/12.5–25 μg/mL. For the same compound, the Sol6.5 in series [1] is reported as 12.5–25/12.5–25 μg/mL. In addition, the “systemic exposure (AUC to last measured concentration) relative to 1” value in series [4] is reported as 2–4 fold.

On to `O=C(C1CCCCC1)N1CC(=O)N2CCc3ccccc3C2C1` (stereo not shown) [praziquantel], for which the worm burden reduction in series [6] is reported as 96%.

As for `O=C(Nc1ccnc(C(F)(F)F)c1)Nc1ccc2c(c1)OC(F)(F)O2` [Compd 20], the IC50 in [2], in series [3] and in series [5] was > 100 µM each time. For the same compound, the Sol2.0 in series [1] is on record as 3.1–6.3/3.1–6.3 μg/mL. For the same compound, the Sol6.5 in series [1] is reported as 3.1–6.3/3.1–6.3 μg/mL. For the same compound, the “plasma concentration maintained over the 48 h sampling period” value in [4] was > 5 µM.

Turning to `CC(=O)c1ccc(NC(=O)Nc2ccc(F)c(C(F)(F)F)c2)cc1` [Compd 16], in series [1], the Sol2.0 was <1.6/<1.6 μg/mL and the Sol6.5 was <1.6/<1.6 μg/mL.

For `N#Cc1ccc(NC(=O)Nc2ccc(F)c(C(F)(F)F)c2)cc1` [Compd 15], the IC50 in [2], in [3] and in series [5] was > 100 µM in each case. Also, the Sol2.0 in series [1] is reported as <1.6/<1.6 μg/mL. Besides, the Sol6.5 in series [1] is <1.6/<1.6 μg/mL. For the same compound, the “plasma concentration by ~18 h post-dose” value in [4] is on record as “below 1 μM”.

Take `NC(=O)c1ccc(NC(=O)Nc2ccc(F)c(C(F)(F)F)c2)cc1` [Compd 13]: in series [1], the Sol2.0 is 6.3–12.5/6.3–12.5 μg/mL and the Sol6.5 is 6.3–12.5/6.3–12.5 μg/mL.

In series [1], `Cc1cc(NC(=O)Nc2ccc(F)c(C(F)(F)F)c2)on1` [Compd 10] displayed a Sol2.0 of 12.5 to 25 µg/mL and a Sol6.5 of 6.3 to 12.5 µg/mL.

Take `O=C(Nc1ccc(Cl)c(Cl)c1)Nc1ccc(Cl)c(Cl)c1` [MMV665852]: the half-life – broadly, the time in which the quantity being followed falls by half – in series [7] is recorded as 4.7 h. Further, in series [8], the “in vitro selectivity index” value is 64 fold and the “potency against ex vivo S. mansoni relative to praziquantel (fold less potent)” value is given as 4 fold. Further, the LogD7.4 in series [9] was 5.2.

Turning to `O=C(Nc1ccc(F)c(C(F)(F)F)c1)Nc1cnccn1` [Compd 9], in [1], the Sol2.0 was in the range of 1.6 to 3.1 µg/mL.

Consider `O=C(Nc1cccc(C(=O)O)c1)Nc1ccc(F)c(C(F)(F)F)c1` [Compd 12], for which, in [1], the Sol2.0 was 1.6 to 3.1 µg/mL and the Sol6.5 lay in the range of 12.5 to 25 µg/mL.

As to `NC(=O)c1ccccc1NC(=O)Nc1ccc(F)c(C(F)(F)F)c1` [Compd 14], in [1], the Sol2.0 is 1.6–3.1/1.6–3.1 μg/mL and the Sol6.5 is on record as 1.6–3.1/1.6–3.1 μg/mL.

In the case of `O=C(Nc1cnccn1)Nc1cnccn1` [Compd 4], in series [1], the Sol2.0 was 6.3–12.5/6.3–12.5 μg/mL and the Sol6.5 is on record as 6.3–12.5/6.3–12.5 μg/mL.

With `N#Cc1ccc(NC(=O)Nc2ccnc(C(F)(F)F)c2)cc1` [Compd 19], the IC50 in [2], in series [3] and in series [5] was > 100 µM in each case. The Sol2.0 in [1] is recorded as 1.6–3.1/1.6–3.1 μg/mL. The Sol6.5 in series [1] was 1.6–3.1/1.6–3.1 μg/mL. For the same compound, in series [4], the “plasma concentration by ~18 h post-dose” value is on record as “below 1 μM”.

As to `O=C(Nc1ccncc1)Nc1ccc(F)c(C(F)(F)F)c1` [Compd 6], in series [1], the Sol2.0 is listed as 6.3–12.5/6.3–12.5 μg/mL and the Sol6.5 was 6.3–12.5/6.3–12.5 μg/mL.
